Test results as given in publication PMC7618597, “Dual Nurr1/RXR agonism of valerenic acid and synthetic mimetics enables dimer-selective Nurr1 modulation” (ACS medicinal chemistry letters, 2025).

Tests used:
RXRα LBD = molecular target: T1, RXRα LBD (Homo sapiens, UniProt P19793); experiment: Isothermal titration calorimetry, recombinant RXRα LBD; type: binding; conditions: ITC
T1 construct: made in house
T1 sequence (P19793 227-458 limits assumed): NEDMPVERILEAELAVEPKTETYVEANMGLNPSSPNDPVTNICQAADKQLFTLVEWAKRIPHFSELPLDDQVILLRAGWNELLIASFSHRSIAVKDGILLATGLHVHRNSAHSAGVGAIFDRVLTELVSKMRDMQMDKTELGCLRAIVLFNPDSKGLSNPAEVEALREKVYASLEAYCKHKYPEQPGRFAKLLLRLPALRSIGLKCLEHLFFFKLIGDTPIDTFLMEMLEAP
Protocol: Isothermal titration calorimetry. ITC experiments for ligand binding to Nurr1 and RXR were conducted on an Affinity ITC instrument (TA Instruments, New Castle, DE) at 25 °C with a stirring rate of 75 rpm using recombinantly expressed ligand binding domain proteins as described previously5,6. The respective LBD protein (12–25 μM) in buffer (20 mM Tris pH 7.5, 100 mM NaCl, 5% glycerol) containing 2-4% DMSO was titrated with the test compounds (100-150 μM in the same buffer containing 2-4% DMSO) in 21–26 injections (1 × 1 μL and 20 × 4 to 25 × 4 μL) with an injection interval of 120 s. As control experiments, the test compounds were titrated to the buffer, and the buffer was titrated to the protein under otherwise identical conditions. The heat rates of the compound-Nurr1 LBD titrations were analyzed using NanoAnalyze software (TA Instruments, New Castle, DE) with an independent binding model.

[1] = tested on: rat dopaminergic neuronal cells (N27); experiment: Nurr1-regulated gene expression (qPCR) in N27 cells; type: cell-based
Protocol: Nurr1 is a key factor of neuroprotection and health of dopaminergic neurons. Therefore, we explored the impact of 2 (10 μM) and 3 (1 μM) on gene expression in rat dopaminergic neuronal cells (N27), which have been widely used to study Nurr1 agonists[17],[18],[38],[39]. Both compounds were non-toxic at the test concentrations in a multiplex toxicity assay (Figure S5). […] Modulation of Nurr1 LBD homodimerization and heterodimerization of the LDBs of Nurr1 and RXRα was investigated by HTRF as reported previously4. Nurr1 LBD or RXRα LBD proteins labeled with sGFP were titrated against a fixed concentration of Tb3+-cryptate as streptavidin conjugate ([…], Revvity) coupled to biotinylated Nurr1 LBD protein in the presence of test compounds at 30 μM or absence of compound as a negative control (apo). Assay solutions were prepared in buffer containing 25 mM HEPES pH 7.5, 150 mM KF, 5% (m/v) glycerol, 5 mM DTT, 0.1% (m/v) CHAPS and 1% DMSO. The FRET donor complex was formed from biotinylated Nurr1 LBD (final concentration 0.188 nM) and Tb-SA (0.375 nM) and was kept constant. For the homodimerization assay, the FRET acceptor consisted of sGFP-Nurr1 LBD, which was titrated from 0.5 μM, while free sGFP was added to keep the total GFP content stable at 0.5 μM. For the heterodimerization assay, the FRET acceptor sGFP-RXRα LBD was titrated from 6 μM, while free sGFP was added to keep a constant concentration of GFP at 6 μM. Samples were equilibrated at room temperature for 2 h and fluorescence intensities (FI) after excitation at 340 nm were recorded at 520 nm for sGFP acceptor fluorescence and at 620 for Tb-SA donor fluorescence on a SPARK plate reader (Tecan Group Ltd.). FI520 was divided by FI620 and multiplied by 10,000 to give a dimensionless HTRF signal. For dose-response curve fitting, the equation “[Agonist] versus response-variable slope (four parameters)” was used in GraphPad Prism ( version 9.5.1, GraphPad Software, La Jolla, CA). Evaluation of Nurr1-regulated gene expression. N27 rat dopaminergic neural cells (SCC048, Sigma-Aldrich, Darmstadt, Germany) were cultured in RPMI 1640 medium (Gibco, Thermo Fisher Scientific, Waltham, MA, USA) supplemented with 10% FCS, penicillin (100 U/mL), and streptomycin (100 μg/mL) at 37 °C and 5% and seeded in 12-well plates (3×10^5 cells/well). […] RNA concentration and purity were assessed using a NanoDrop One UV-vis spectrophotometer (Thermo Fisher Scientific) at 260/280 nm. […]

## Cc1c2c(n(-c3ccc(CC(=O)O)cc3)c1C)CCC(F)(F)C2 [compound 2]
RXRα LBD
  Kd: 1100 nM
[1]; 10 μM
  mRNA expression of TH, FLRT2, BDNF, CRMP4: robustly upregulated
  mRNA expression of XIAP, SESN3, CCND2, BIRC5, SOD2: not induced

## Cc1c(C)n(-c2ccc(CC(=O)O)cc2)c2ccc(F)cc12 [compound 3]
RXRα LBD
  Kd: 200 nM
[1]; 1 μM
  mRNA expression of TH, FLRT2, BDNF, CRMP4: robustly upregulated
  mRNA expression of XIAP, SESN3, CCND2, BIRC5, SOD2: not induced
